The values below come from paper PMC4660620, “Aspidosperma (Apocynaceae) plant cytotoxicity and activity towards malaria parasites. Part II: experimental studies with Aspidosperma ramiflorum in vivo and in vitro” (Memórias do Instituto Oswaldo Cruz, 2015).

Bounds are passed on as bounds.

The test concerns Plasmodium berghei, the NK65 strain. In words: Drug suppressive test against P. berghei in mice. It is filed as in vivo, Plasmodium berghei in Swiss outbred mice. The method, then: Adult Swiss outbred mice (20 ± 2 g weigh) were inoculated by the intraperitoneal route with 1 × 10^5 red blood cells infected withP. berghei, the NK65 strain. Groups of 20-30 infected mice were kept together for 2-24 h, then were divided randomly in groups of up to six animals per cage and were treated by gavage for three consecutive days with 25 mg/Kg or 50 mg/Kg of the test compounds diluted in DMSO 3% (v/v). Two control groups were used and either received CQ (20 mg/kg, diluted in water) or the drug vehicle. Smears prepared from the tail blood of the mice on days 5-10 post-infection were methanol-fixed, stained with Giemsa and examined microscopically.

As to `CCN(CC)CCCC(C)Nc1ccnc2cc(Cl)ccc12` (stereo not drawn) [Chloroquine, chloroquine], for the setting “20 mg/kg, increase compared to survival of nontreated controls”, the “Mice survival (increase)” value is above 8 days. Where the note is “mice, 20 mg/kg by gavage, three consecutive days”, the “Mice survival” value is on record as above 30 days. The “Parasitaemia reduction at day 10” value (mice, 20 mg/kg by gavage, three consecutive days, in relation to untreated mice) came out at 100%.
